Earlier results, collected in PubChem BioAssay AID1259409 (Chemical Carcinogenesis Research Information System (CCRIS), 2018).

Test system: rodent chemically induced tumor inhibition, incidence and multiplicity
Experiment: CCRIS tumor inhibitor studies
Conditions: for tumour outcome (control, treated, inhibition, significance): Route [Inhibitor]: ORAL; for outcome: Carcinogen: N,N-Diethylnitrosamine, Route [Inhibitor]: Intravenous, Species: Rat, Strain/Sex: Swiss-Albino/Male, Target Tissue: Type of Lesion: Liver: preneoplastic lesions, Promoter: None

## O=c1c(O)c(-c2ccc(O)c(O)c2)oc2cc(O)cc(O)c12
Carcinogen: DIETHYLNITROSAMINE, 55-18-5, N-METHYLNITROSOUREA, 684-93-5, 1,2-DIMETHYLHYDRAZINE, 540-73-8, N-BUTYL-N-(4-HYDROXYB, Carcinogen: DIETHYLNITROSAMINE, 55-18-5, N-METHYLNITROSOUREA, 684-93-5, 1,2-DIMETHYLHYDRAZINE, 540-73-8, N-BUTYL-N-(4-HYDROXYB, Dose [Inhibitor]: 0, 1% IN DIET FOR 32 WK BEGINNING POST CARCINOGEN TREATMENT (STUDY DURATION: 36 WK), Species: RAT, Strain/Sex: F344/MALE, Target Tissue: Type of Lesion: SMALL INTESTINE: ADENOMA, Dose [Carcinogen]: 100 MG/KG DEN ONCE, 20 MG/KG MNU 4 TIMES, 40 MG/KG DMH 4 TIMES, 0.05% BBN IN DRINKING WATER FOR 2 WK, 0.1% DHPN IN D, Dose [Carcinogen]: 100 MG/KG DEN ONCE, 20 MG/KG MNU 4 TIMES, 40 MG/KG DMH 4 TIMES, 0.05% BBN IN DRINKING WATER FOR 2 WK, 0.1% DHPN IN D, Promoter: NONE USED
  tumour outcome (control, treated, inhibition, significance): 6/14 (43%), 0/12 (0%), 100%, p<0.05
Carcinogen: DIETHYLNITROSAMINE, 55-18-5, N-METHYLNITROSOUREA, 684-93-5, 1,2-DIMETHYLHYDRAZINE, 540-73-8, N-BUTYL-N-(4-HYDROXYB, Carcinogen: DIETHYLNITROSAMINE, 55-18-5, N-METHYLNITROSOUREA, 684-93-5, 1,2-DIMETHYLHYDRAZINE, 540-73-8, N-BUTYL-N-(4-HYDROXYB, Dose [Inhibitor]: 0, 1% IN DIET FOR 32 WK BEGINNING POST CARCINOGEN TREATMENT (STUDY DURATION: 36 WK), Species: RAT, Strain/Sex: F344/MALE, Target Tissue: Type of Lesion: SMALL INTESTINE: CARCINOMA, Dose [Carcinogen]: 100 MG/KG DEN ONCE, 20 MG/KG MNU 4 TIMES, 40 MG/KG DMH 4 TIMES, 0.05% BBN IN DRINKING WATER FOR 2 WK, 0.1% DHPN IN D, Dose [Carcinogen]: 100 MG/KG DEN ONCE, 20 MG/KG MNU 4 TIMES, 40 MG/KG DMH 4 TIMES, 0.05% BBN IN DRINKING WATER FOR 2 WK, 0.1% DHPN IN D, Promoter: NONE USED
  tumour outcome (control, treated, inhibition, significance): 5/14 (36%), 0/12 (0%), 100%, p<0.05
Carcinogen: DIETHYLNITROSAMINE, 55-18-5, N-METHYLNITROSOUREA, 684-93-5, 1,2-DIMETHYLHYDRAZINE, 540-73-8, N-BUTYL-N-(4-HYDROXYBU, Carcinogen: DIETHYLNITROSAMINE, 55-18-5, N-METHYLNITROSOUREA, 684-93-5, 1,2-DIMETHYLHYDRAZINE, 540-73-8, N-BUTYL-N-(4-HYDROXYBU, Dose [Inhibitor]: 0, 1% IN DIET FOR 32 WK BEGINNING POST CARCINOGEN TREATMENT (STUDY DURATION: 36 WK), Species: RAT, Strain/Sex: F344/MALE, Target Tissue: Type of Lesion: LARGE INTESTINE: ADENOMA, Dose [Carcinogen]: 100 MG/KG DEN ONCE, 20 MG/KG MNU 4 TIMES, 40 MG/KG DMH 4 TIMES, 0.05% BBN IN DRINKING WATER FOR 2 WK, 0.1% DHPN IN D, Dose [Carcinogen]: 100 MG/KG DEN ONCE, 20 MG/KG MNU 4 TIMES, 40 MG/KG DMH 4 TIMES, 0.05% BBN IN DRINKING WATER FOR 2 WK, 0.1% DHPN IN D, Promoter: NONE USED
  tumour outcome (control, treated, inhibition, significance): 7/14 (50%), 3/12 (25%), 50%, not significant
Carcinogen: DIETHYLNITROSAMINE, 55-18-5, N-METHYLNITROSOUREA, 684-93-5, 1,2-DIMETHYLHYDRAZINE, 540-73-8, N-BUTYL-N-(4-HYDROXYBU, Carcinogen: DIETHYLNITROSAMINE, 55-18-5, N-METHYLNITROSOUREA, 684-93-5, 1,2-DIMETHYLHYDRAZINE, 540-73-8, N-BUTYL-N-(4-HYDROXYBU, Dose [Inhibitor]: 0, 1% IN DIET FOR 32 WK BEGINNING POST CARCINOGEN TREATMENT (STUDY DURATION: 36 WK), Species: RAT, Strain/Sex: F344/MALE, Target Tissue: Type of Lesion: LUNG: ADENOMA, Dose [Carcinogen]: 100 MG/KG DEN ONCE, 20 MG/KG MNU 4 TIMES, 40 MG/KG DMH 4 TIMES, 0.05% BBN IN DRINKING WATER FOR 2 WK, 0.1% DHPN IN D, Dose [Carcinogen]: 100 MG/KG DEN ONCE, 20 MG/KG MNU 4 TIMES, 40 MG/KG DMH 4 TIMES, 0.05% BBN IN DRINKING WATER FOR 2 WK, 0.1% DHPN IN D, Promoter: NONE USED
  tumour outcome (control, treated, inhibition, significance): 6/14 (43%), 3/12 (25%), 42%, not significant
55-18-5, Dose [Inhibitor]: 0.5 ml suspension of 0.2% tween 80 aqueous soln with 0.898 mM quercetin once a wk for 16 wk, Dose [Carcinogen]: 200 mg/kg bw in 0.5 ml olive oil three times at 15 day intervals beginning on wk 1
  outcome: 1205+/-102, 1111+/-56, not significant
55-18-5, Dose [Inhibitor]: 0.5 ml suspension of galactosylated liposomal quercitin, 0.898 mM, once a wk for 16 wk, study duration 18 wk, Dose [Carcinogen]: 200 mg/kg bw in 0.5 ml olive oil three times at end of 1st, 3rd and 5th wk, study duration 18 wk
  outcome: 1205+/-102, 361+/-22, significant
55-18-5, Dose [Inhibitor]: 0.5 ml suspension of liposomal quercitin, 0.898 mM, once a wk for 16 wk, study duration 18 wk, Dose [Carcinogen]: 200 mg/kg bw in 0.5 ml olive oil three times at end of 1st, 3rd and 5th wk, study duration 18 wk
  outcome: 1205+/-102, 861+/-81, significant
Carcinogen: N-BUTYL-N-(4-HYDROXYBUTYL)NITROSAMINE, 3817-11-6, Dose [Inhibitor]: 5% DIET DAILY FOR 34 WK STARTING AT COMPLETION OF CARCINOGEN TREATMENT (STUDY DURATION: 38 WK), Species: RAT, Strain/Sex: F344/MALE, Target Tissue: Type of Lesion: URINARY BLADDER: PAPILLOMA, Dose [Carcinogen]: 0.01% IN DRINKING WATER FOR 4 WK, Promoter: NONE USED
  tumour outcome (control, treated, inhibition, significance): 33%, 17%, 48%, not significant
Carcinogen: N-NITROSODIETHYLAMINE, 55-18-5, 2-ACETYLAMINOFLUORENE, 53-93-6, CARBON TETRACHLORIDE, 56-23-5, Carcinogen: N-NITROSODIETHYLAMINE, 55-18-5, 2-ACETYLAMINOFLUORENE, 53-93-6, CARBON TETRACHLORIDE, 56-23-5, Dose [Inhibitor]: 0, 1.5% IN DIET FOR 29 WK ADMINISTERED TO RATS BEARING PERSISTENT NODULES FOLLOWING CARCINOGEN TREATMENT (STUDY DURATION, Species: RAT, Strain/Sex: F344/MALE, Target Tissue: Type of Lesion: LIVER: HEPATOCELLULAR CARCINOMA, Dose [Carcinogen]: 200 MG/KG BW DEN ONCE, 0.002% 2-AAF IN DIET FOR 2 WK, 1 MG/KG BW CCL4 MIDWAY IN 2-AAF TREATMENT, Dose [Carcinogen]: 200 MG/KG BW DEN ONCE, 0.002% 2-AAF IN DIET FOR 2 WK, 1 MG/KG BW CCL4 MIDWAY IN 2-AAF TREATMENT, Promoter: NONE USED
  tumour outcome (control, treated, inhibition, significance): 7/8 (88%), 7/11 (64%), 27%, not significant
Carcinogen: N-NITROSODIETHYLAMINE, 55-18-5, 2-ACETYLAMINOFLUORENE, 53-93-6, CARBON TETRACHLORIDE, 56-23-5, Carcinogen: N-NITROSODIETHYLAMINE, 55-18-5, 2-ACETYLAMINOFLUORENE, 53-93-6, CARBON TETRACHLORIDE, 56-23-5, Dose [Inhibitor]: 0, 1.5% IN DIET FOR 29 WK ADMINISTERED TO RATS BEARING PERSISTENT NODULES FOLLOWING CARCINOGEN TREATMENT (STUDY DURATION, Species: RAT, Strain/Sex: F344/MALE, Target Tissue: Type of Lesion: LIVER: HEPATOCELLULAR CARCINOMA, Dose [Carcinogen]: 200 MG/KG BW DEN ONCE, 0.002% 2-AAF IN DIET FOR 2 WK, 1 ML/KG BW CCL4 MIDWAY IN 2-AAF TREATMENT, Dose [Carcinogen]: 200 MG/KG BW DEN ONCE, 0.002% 2-AAF IN DIET FOR 2 WK, 1 ML/KG BW CCL4 MIDWAY IN 2-AAF TREATMENT, Promoter: PHENOBARBITAL, 50-06-6
  tumour outcome (control, treated, inhibition, significance): 12/12 (100%), 13/14 (93%), 7%, not significant
Carcinogen: N-NITROSOMETHYLUREA, 684-93-5, Dose [Inhibitor]: 5.0% IN DIET BEGINNING 1 WK PRIOR TO CARCINOGEN DOSE AND CONTINUING FOR DURATION OF STUDY (STUDY DURATION: 21 WK), Species: RAT, Strain/Sex: SPRAGUE-DAWLEY/FEMALE, Target Tissue: Type of Lesion: MAMMARY GLAND: TUMOR, Dose [Carcinogen]: 50 MG/KG BW IN 0.9% SALINE AND 5% ACETIC ACID STABILIZER ONCE, Promoter: NONE USED
  tumour outcome (control, treated, inhibition, significance): 78%, 70%, 10%, not calculated
Dose [Inhibitor]: 0, 2000 PPM IN DIET BEGINNING 8 WK PRIOR TO CARCINOGEN AND CONTINUING FOR 6 WK POST CARCINOGEN (STUDY DURATION: 68 WK), Species: FISH, Strain/Sex: RAINBOW TROUT, Target Tissue: Type of Lesion: LIVER: HEPATOCELLULAR CARCINOMA, Dose [Carcinogen]: 20 PPB IN DIET FOR 2 WK, Promoter: NONE USED
  tumour outcome (control, treated, inhibition, significance): 43/118 (36%), 30/115 (26%), 27%, not significant
